The values that follow come from patent US20250034165A1, “COMPOUND CONTAINING CYCLOALKYL OR HALOALKYL” (CHIA TAI TIANQING PHARMACEUTICAL GROUP CO., LTD., priority 2021, published 2025).

Where two headings read alike, the source gives them in different places.

The subject of data set [1] is BAF3-EGFR (del19/T790M/C797S) cells. Put plainly: Inhibition of proliferation of BAF3-EGFR (Del19/T790M/C797S) cells, CCK-8. The conditions noted are these: Ba/F3 EGFR-Del19/T790M/C797S, 72 h, read-out: BAF3(EGFR T790M Del19 C797S) cell inhibitory activity IC50. The format is cell-based. How it is done: (§1) A flask of BAF3-EGFR (del19/T790M/C797S) cells in the logarithmic growth phase and good conditions was taken, and the cells were collected and added to a centrifuge tube. 20 μL of cells were taken and counted, and the required number of cells (mL) was pipetted and centrifuged at 1200 rpm for 3 min. The supernatant was discarded, and an appropriate amount of plating medium (RPMI medium+10% FBS) was added to adjust the cell density to 1.0×10^5 cells/mL. The cells were seeded on a 96-well plate at 100 μL/well using a multi-channel pipette and cultured in a cell incubator at 37° C., 5% CO2 with saturated humidity. After overnight incubation, compounds were loaded using a nanoliter pipettor, 2 duplicate wells were set for each concentration, and cells without compound added were used as negative controls.
(§2) Inhibition rate (%)=(mean value of negative control group-mean value of experimental group)/(mean value of negative control group−mean value of blank group)×100%.
(§3) A dose-response curve was fitted by four-parameter analysis, with the logarithm of compound concentration serving as abscissa and inhibition rate serving as ordinate, such that IC50 was calculated.

Data set [2] deals with BAF3-EGFR (L858R/T790M/C797S) cells. Put plainly: Inhibition of proliferation of BAF3-EGFR (L858R/T790M/C797S) cells, CCK-8. The format is cell-based. The following applies: Ba/F3 EGFR, 72 h, read-out: BAF3(EGFR T790M L858R C797S) cell inhibitory activity IC50. How it is done:
as §1, with “EGFR (L858R/T790M/C797S)” for “BAF3-EGFR (del19/T790M/C797S)”, “1.5×10^5” for “1.0×10^5”
as §2, §3

Data set [3] deals with EGFR (d746-750/T790M/C797S) (Homo sapiens (Human), UniProt P00533, C797S/DEL746-750/T790M). Put plainly: Inhibitory activity for EGFR (d746-750/T790M/C797S) kinase. The data set is classed as biochemical. The following applies: ATP 5 μM; read-out: EGFR(d19/T790M/C797S) (IC50). As for the experimental part: 1.5 Screening for Inhibitory Activity for EGFR (d746-750/T790M/C797S) Kinase
Sequence of EGFR (d746-750/T790M/C797S) (P00533 other isoform, or with tags, fused parts or gaps T790M/C797S/del 1-694/del 746-750 limits assumed): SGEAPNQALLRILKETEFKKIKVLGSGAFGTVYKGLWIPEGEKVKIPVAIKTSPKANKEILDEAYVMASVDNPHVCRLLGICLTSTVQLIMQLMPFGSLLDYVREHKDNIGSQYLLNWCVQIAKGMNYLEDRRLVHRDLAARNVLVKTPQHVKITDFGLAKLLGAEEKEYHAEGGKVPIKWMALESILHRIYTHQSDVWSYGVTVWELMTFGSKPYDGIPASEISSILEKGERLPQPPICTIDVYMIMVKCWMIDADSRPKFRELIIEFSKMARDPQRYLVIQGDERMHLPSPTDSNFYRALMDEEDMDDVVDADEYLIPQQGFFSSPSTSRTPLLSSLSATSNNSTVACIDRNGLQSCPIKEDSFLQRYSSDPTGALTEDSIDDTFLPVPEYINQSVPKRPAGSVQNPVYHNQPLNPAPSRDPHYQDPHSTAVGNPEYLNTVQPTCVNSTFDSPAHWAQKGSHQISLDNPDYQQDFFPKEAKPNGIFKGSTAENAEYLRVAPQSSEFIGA
(§4) A 50 ng/μL EGFR (d746-750/T790M/C797S, BPS) stock solution was diluted with a kinase buffer (50 mM HEPES, 10 mM MgCl2, 2 mM DTT, 1 mM EGTA, 0.01% Tween 20), and 6 μL of 1.67× working solution at 0.05 ng/μL (final concentration: 0.03 ng/μL) was added to each well. Different compounds dissolved in DMSO were added to the wells using a nanoliter pipettor, resulting in the final concentrations of the compounds of 10 nM to 0.0024 nM (4-fold gradient for 7 concentrations in total), and blank control wells (without enzyme) and negative control wells (with enzyme, plus vehicle DMSO) were set, 2 replicate wells for each concentration. After enzyme was reacted with the compound or vehicle for 30 min, 5×ATP at 25 μM (final concentration: 5 μM, Sigma) prepared with a kinase buffer was mixed with 5× substrate at 0.5 μM (final concentration: 0.1 μM, ULight-poly GT, PerkinElmer) at a ratio of 1:1 (v:v), and the mixture was added to each well at 4 μL/well. After being sealed with a film, the plate was incubated at room temperature for 2 h, and then 5 μL of 4×EDTA at 40 mM (final concentration: 10 mM) was added to each well. After the plate was incubated for 5 min at room temperature, 5 μL of 4× detection reagent at 8 nM (final concentration: 2 nM, Eu-anti-phospho-tyrosine antibody, PerkinElmer) was added to each well. After being incubated at room temperature for 1 h, the plate was read using a PerkinElmer Envision multi-mode microplate reader (excitation: 320 nm, emission: 665 nm), and IC50 was calculated by four-parameter fitting.

Data set [4] addresses EGFR (d746-750 (d19)/T790M) (Homo sapiens (Human), UniProt P00533, DEL746-750/T790M). Put plainly: Inhibitory activity for EGFR (d746-750 (d19)/T790M) kinase. The format is biochemical. The following applies: ATP 5 μM. As for the experimental part: 1.3 Screening for Inhibitory Activity for EGFR (d746-750 (d19)/T790M) Kinase
as §4, with “(d746-750/T790M, Carna)” for “(d746-750/T790M/C797S, BPS)”, “0.005” for “0.05”, “0.003” for “0.03”

The nature of data set [5]: In vivo pharmacokinetics in ICR mice. The conditions noted are these: for AUC(0-t): read-out: AUC(0-t); for MRT last: read-out: MRT(0-t); for half-life: read-out: T½ (converted). As for the experimental part: The animals to be tested (ICR mice) were fasted for 12 h before administration and food was provided 4 h after administration, and water was freely drunk before and after the experiment and during the experiment.
After intragastric administration, about 0.1 mL of blood was collected from the orbit at 0 min, 15 min, 30 min, 1 h, 2 h, 4 h, 6 h, 8 h, 10 h, and 24 h. After anticoagulation with EDTA-K2, blood samples were transferred to a centrifuge within 30 min, and centrifuged at 4000 rpm for 10 min at 4° C. to separate the plasma. All the plasma samples were collected and immediately stored at −20° C. for testing.
300 μL of acetonitrile solution containing an internal standard ([…] diazepam) was added to 20 μL of the plasma sample to be tested and a standard curve sample. The mixture was shaken and homogeneously mixed for 5 min, and centrifuged at 12,000 rpm for 10 min. 70 μL of supernatant was taken and diluted with 70 μL of ultrapure water. After being mixed well, 2 μL of the resulting sample was subjected to LC/MS/MS, and a chromatogram was recorded.

Where [6] appears, read: mouse, plasma, PO, 10 mg/kg intragastric.

Sequence of EGFR (d746-750 (d19)/T790M) (P00533 other isoform, or with tags, fused parts or gaps T790M/del 1-668/del 746-750 limits assumed): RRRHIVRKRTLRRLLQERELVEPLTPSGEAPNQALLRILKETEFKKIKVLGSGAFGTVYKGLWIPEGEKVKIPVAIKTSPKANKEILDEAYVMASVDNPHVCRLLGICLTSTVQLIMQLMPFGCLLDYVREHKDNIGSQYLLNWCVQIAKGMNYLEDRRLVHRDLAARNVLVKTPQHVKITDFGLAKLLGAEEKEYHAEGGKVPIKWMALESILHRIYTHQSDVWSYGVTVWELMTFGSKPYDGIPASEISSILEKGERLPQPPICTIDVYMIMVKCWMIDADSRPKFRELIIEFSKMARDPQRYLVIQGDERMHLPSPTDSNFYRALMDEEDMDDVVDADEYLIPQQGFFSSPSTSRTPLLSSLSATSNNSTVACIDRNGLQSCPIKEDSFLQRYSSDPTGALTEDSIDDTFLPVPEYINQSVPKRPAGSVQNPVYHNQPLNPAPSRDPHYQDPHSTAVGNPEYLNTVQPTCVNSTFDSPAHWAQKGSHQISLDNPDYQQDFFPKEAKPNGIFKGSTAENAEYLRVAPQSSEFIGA

Regarding `Cc1cc2cc(n1)-c1cnn(C)c1OCCC[C@@H](C1CC1)CN1/C(=N/C2=O)Nc2ccc(NCCCN(C)C)cc21` [Example 27], the IC50 in data set [1] was less than 1 nM; in data set [2], less than 5 nM; in data set [3], 0.027 nM; in data set [4], 0.019 nM.

Consider `CCC1(Nc2ccc3c(c2)N/C2=N\C(=O)c4cc(C)nc(c4)-c4cnn(C)c4OCCC[C@@H](C4CC4)CN23)COC1` [Example 90], for which, in data set [5] (IV), the CLz came out at 37.8 mL/min/kg. In addition, in data set [5] (mouse, plasma, 1 mg/kg, IV), the AUC(0-inf) came to 441 ng·h/mL, the exposure AUC(0-t) was 441 ng·h/mL, the MRT last amounted to 1.65 h and the half-life is 1.58 h. The molecule further had a bioavailability in data set [5] (mouse, plasma, 10 mg/kg, PO vs IV) of 68.4%. In data set [5] (setting [6]), the AUC(0-inf) was 3020 ng·h/mL, the AUC(0-t) worked out at 3010 ng·h/mL, the MRT last is 6.47 h and the half-life is 2.46 h. Moreover, the Cmax in data set [5] (mouse, plasma, PO, 10 mg/kg intragastric, read-out: Cmax) was determined as 352 ng/mL. Also, the Tmax in data set [5] (mouse, plasma, PO, 10 mg/kg intragastric, read-out: Tmax) was 0.5 h. In addition, in data set [1], the IC50 was less than 1 nM. Moreover, the IC50 in data set [2] was less than 5 nM.

With `Cc1cc2cc(n1)-c1cnn(C)c1OCCC[C@@H](C1CC1)CN1/C(=N/C2=O)Nc2cc(NCC3COC3)ccc21` [Example 36], the IC50 was less than 1 nM in data set [1], less than 5 nM in data set [2], 0.022 nM in data set [3] and 0.015 nM in data set [4].

`Cc1cc2cc(n1)-c1cnn(C)c1OCCC[C@@H](C1CC1)CN1/C(=N/C2=O)Nc2cc(NC(C)CN(C)C)ccc21` (stereo partly drawn) [Example 62]: the IC50 in data set [1] is less than 1 nM; in data set [2], less than 5 nM; in data set [3], 0.022 nM; in data set [4], 0.013 nM.

`Cc1cc2cc(n1)-c1cnn(C)c1OCCC[C@@H](C1CC1)CN1/C(=N/C2=O)Nc2ccc(NCCN3CCCCC3)cc21` [Example 83]: the IC50 in data set [1] was less than 1 nM; in data set [2] it was less than 5 nM; in data set [3] it was 0.017 nM; in data set [4] it was 0.013 nM.

On to `CCC1(CNc2ccc3c(c2)N/C2=N\C(=O)c4cc(C)nc(c4)-c4cnn(C)c4OCCC[C@@H](C4CC4)CN23)COC1` [Example 92], for which the IC50 is less than 1 nM in data set [1] and less than 5 nM in data set [2].

As to `Cc1cc2cc(n1)-c1cnn(C)c1OCCC[C@@H](C1CC1)CN1/C(=N/C2=O)Nc2cc(NCCN(C)C)ccc21` [Example 42], the IC50 in data set [1] is less than 1 nM; in data set [2], less than 5 nM; in data set [3], 0.012 nM; in data set [4], 0.0076 nM.

Regarding `Cc1cc2cc(n1)-c1cnn(C)c1OCCC[C@@H](C1CC1)CN1/C(=N/C2=O)Nc2ccc(OCCN(C)C)cc21` [Example 11], the IC50 in data set [1] was less than 1 nM; in data set [2], less than 5 nM; in data set [3], 0.024 nM; in data set [4], 0.025 nM.

On to `Cc1cc2cc(n1)-c1cnn(C)c1OCCC[C@@H](C1CC1)CN1/C(=N/C2=O)Nc2ccc(N[C@H](C)CN(C)C)cc21` [Example 65], for which the IC50 in data set [1] was less than 1 nM; in data set [2], less than 5 nM.

On to `Cc1cc2cc(n1)-c1cnn(C)c1OCCC[C@@H](C1CC1)CN1/C(=N/C2=O)Nc2cc(NCC3CCOCC3)ccc21` [Example 22], for which the IC50 was less than 1 nM in data set [1], less than 5 nM in data set [2], 0.03 nM in data set [3] and 0.018 nM in data set [4].

For the molecule `Cc1cc2cc(n1)-c1cnn(C3CC3)c1OCCC[C@@H](C)CN1/C(=N/C2=O)Nc2ccc(NCCN(C)C)cc21` [Example 17], the IC50 in data set [1] is less than 1 nM; in data set [2] it was less than 5 nM; in data set [3] it was 0.014 nM; in data set [4], 0.012 nM.

In the case of `Cc1cc2cc(n1)-c1cnn(C)c1OCCC[C@@H](C1CC1)CN1/C(=N/C2=O)Nc2ccc(NCCN)cc21` [Example 58], the IC50 in data set [1] was less than 1 nM; in data set [2], less than 5 nM; in data set [3] it was 0.015 nM; in data set [4] it was 0.0094 nM.
